The record followed here is PubChem BioAssay AID248 (DTP/NCI, 2004).

This assay has as its system L1210 leukemia ip in BDF1 mice, survival T/C. Kind of assay: NCI In Vivo Anticancer Drug Screen. Data for tumor model L1210 Leukemia (intraperitoneal) in B6D2F1 (BDF1) mice. As to conditions: endpoint: mean survival time, higher = longer survival. The essentials: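 Ratio derived from survival: compound-dosed mice over vehicle-dosed mice, all bearing a transplantable tumor.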

[1] abbreviates: dose: 100.0 mg/kg/injection, schedule: Q04DX003 (ip), vehicle: saline.
The mark [2] stands for this setting: dose: 200.0 mg/kg/injection, schedule: Q04DX003 (ip), vehicle: saline.
Where [3] appears, read: dose: 50.0 mg/kg/injection, schedule: Q04DX003 (ip), vehicle: saline.
[4] abbreviates: dose: 100.0 mg/kg/injection, schedule: Q04DX003 (ip), vehicle: Klucel (hydroxypropylcellulose) (HPC).
Where [5] appears, read: dose: 200.0 mg/kg/injection, schedule: Q04DX003 (ip), vehicle: Klucel (hydroxypropylcellulose) (HPC).
The mark [6] stands for this setting: dose: 400.0 mg/kg/injection, schedule: Q04DX003 (ip), vehicle: Klucel (hydroxypropylcellulose) (HPC).
Setting [7] is: dose: 100.0 mg/kg/injection, schedule: Q04DX003 (ip), vehicle: saline with Tween-80.
Setting [8] is: dose: 200.0 mg/kg/injection, schedule: Q04DX003 (ip), vehicle: saline with Tween-80.
Setting [9] is: dose: 400.0 mg/kg/injection, schedule: Q04DX003 (ip), vehicle: saline with Tween-80.

Where “and” joins values, the source holds several entries; their conditions need not be identical. Equal entries are not always repeated. Toxic doses and inconclusive results are not listed.

Regarding `CCOC(=O)Nc1cc(NC(c2ccccc2)c2ccccc2)c2[nH]cnc2n1`, the T/C is 92 % of control (dose: 4.0 mg/kg/injection, schedule: Q01DX009 (ip), vehicle: other); 104 % of control (dose: 5.0 mg/kg/injection, schedule: Q01DX001 (ip), vehicle: other); 93 % of control (dose: 7.0 mg/kg/injection, schedule: Q01DX009 (ip), vehicle: other); 95 % of control (dose: 9.0 mg/kg/injection, schedule: Q01DX009 (ip), vehicle: other); 97 % of control (dose: 9.0 mg/kg/injection, schedule: Q01DX009 (ip), vehicle: steriod suspending solution); 102 % of control (dose: 10.0 mg/kg/injection, schedule: Q01DX001 (ip), vehicle: other). Also, the T/C is 92 % of control (dose: 12.0 mg/kg/injection, schedule: Q01DX009 (ip), vehicle: other); 95 % of control (dose: 13.0 mg/kg/injection, schedule: Q01DX009 (ip), vehicle: other); 97 % of control (dose: 13.0 mg/kg/injection, schedule: Q01DX009 (ip), vehicle: steriod suspending solution); 98 % of control (dose: 18.0 mg/kg/injection, schedule: Q01DX001 (ip), vehicle: steriod suspending solution); 100 % of control and 106 % of control (dose: 20.0 mg/kg/injection, schedule: Q01DX001 (ip), vehicle: other); 95 % of control and 112 % of control (dose: 20.0 mg/kg/injection, schedule: Q01DX009 (ip), vehicle: other). Besides, the T/C (dose: 20.0 mg/kg/injection, schedule: Q01DX009 (ip), vehicle: steriod suspending solution) was 103 % of control; the T/C (dose: 26.0 mg/kg/injection, schedule: Q01DX001 (ip), vehicle: steriod suspending solution) was 100 % of control; the T/C (dose: 30.0 mg/kg/injection, schedule: Q01DX001 (ip), vehicle: other) was 119 % of control; the T/C (dose: 30.0 mg/kg/injection, schedule: Q01DX009 (ip), vehicle: other) was 105 % of control; the T/C (dose: 30.0 mg/kg/injection, schedule: Q01DX009 (ip), vehicle: steriod suspending solution) is 124 % of control; the T/C (dose: 40.0 mg/kg/injection, schedule: Q01DX001 (ip), vehicle: other) was 164 % of control. Also, the T/C is 105 % of control (dose: 40.0 mg/kg/injection, schedule: Q01DX001 (ip), vehicle: steriod suspending solution); 155 % of control (dose: 50.0 mg/kg/injection, schedule: Q01DX001 (ip), vehicle: other); 119 % of control (dose: 60.0 mg/kg/injection, schedule: Q01DX001 (ip), vehicle: other); 111 % of control (dose: 60.0 mg/kg/injection, schedule: Q01DX001 (ip), vehicle: steriod suspending solution); 107 % of control (dose: 80.0 mg/kg/injection, schedule: Q01DX001 (ip), vehicle: other); 107 % of control (dose: 100.0 mg/kg/injection, schedule: Q01DX001 (ip), vehicle: other).
As to `CC1CCc2ccccc2N1C1=NCCO1` (stereo not drawn), the T/C is 97 % of control (dose: 19.0 mg/kg/injection, schedule: Q04DX003 (ip), vehicle: saline); 94 % of control (dose: 38.0 mg/kg/injection, schedule: Q04DX003 (ip), vehicle: saline); 102 % of control (dose: 75.0 mg/kg/injection, schedule: Q01DX001 (ip), vehicle: saline).
Regarding `CCCCN(CCCl)C1c2ccccc2-c2ccccc21`, the T/C was 106 % of control (dose: 25.0 mg/kg/injection, schedule: Q04DX002 (ip), vehicle: Klucel (hydroxypropylcellulose) (HPC)) and 95 % of control (dose: 50.0 mg/kg/injection, schedule: Q04DX002 (ip), vehicle: Klucel (hydroxypropylcellulose) (HPC)).
Take `O=C1/C(=C\c2ccccc2)N2CCC1CC2`: the T/C by setting is: (dose: 100.0 mg/kg/injection, schedule: Q04DX002 (ip), vehicle: saline with Tween-80) 87 % of control; under setting [1], 103 % of control; (dose: 200.0 mg/kg/injection, schedule: Q04DX002 (ip), vehicle: saline with Tween-80) 91 % of control; under setting [2], 108 % of control; (dose: 400.0 mg/kg/injection, schedule: Q04DX002 (ip), vehicle: saline with Tween-80) 87 % of control; (dose: 400.0 mg/kg/injection, schedule: Q04DX003 (ip), vehicle: saline) 103 % of control.
For the compound `OCC1OC(n2cc(Br)c3c2ncn2ccnc32)C(O)C1O` (stereo not drawn), the T/C was 98 % of control (dose: 50.0 mg/kg/injection, schedule: Q01DX005 (ip), vehicle: saline); 104 % of control (dose: 100.0 mg/kg/injection, schedule: Q01DX005 (ip), vehicle: saline); 104 % of control (dose: 200.0 mg/kg/injection, schedule: Q01DX005 (ip), vehicle: saline).
On to `C#CCOC(C(=O)OC1CCN(C)CC1)(c1ccccc1)c1ccccc1`, for which the T/C is, setting by setting: (dose: 25.0 mg/kg/injection, schedule: Q04DX003 (ip), vehicle: saline) 105 % of control; under setting [3], 105 % of control; under setting [1], 97 % of control and 98 % of control.
As for `C=C1C(=O)OC2/C=C(\C)CC/C=C(\C)CC(OC(C)=O)C12` (stereo not drawn), the T/C is 96 % of control (dose: 50.0 mg/kg/injection, schedule: Q01DX001 (ip), vehicle: saline); 96 % of control (dose: 100.0 mg/kg/injection, schedule: Q01DX001 (ip), vehicle: saline); 107 % of control (dose: 200.0 mg/kg/injection, schedule: Q01DX001 (ip), vehicle: saline).
`CC(=O)Nc1cc(C)no1`: the T/C was 103 % of control (dose: 100.0 mg/kg/injection, schedule: Q01DX009 (ip), vehicle: saline); 102 % of control under setting [4]; 100 % of control (dose: 200.0 mg/kg/injection, schedule: Q01DX009 (ip), vehicle: saline); 96 % of control under setting [5]; 101 % of control (dose: 400.0 mg/kg/injection, schedule: Q01DX009 (ip), vehicle: saline); 92 % of control under setting [6].
Consider `Oc1ccc2ccccc2c1C=Nc1ccc(Br)cc1`, for which the T/C was 91 % of control under setting [4], 90 % of control under setting [5] and 91 % of control under setting [6].
Turning to `CC1(C)CC(N=Cc2ccccc2O)CC(C)(C)N1O.CC1(C)CC(N=Cc2ccccc2O)CC(C)(C)N1O.[Pd]`, the T/C runs as follows: under setting [7], 88 % of control; under setting [8], 90 % of control; under setting [9], 88 % of control.
For the compound `C=CCN(CC=C)/N=N\c1nc[nH]c1C(=O)OC`, the T/C was 100 % of control (dose: 100.0 mg/kg/injection, schedule: Q01DX001 (ip), vehicle: saline with Tween-80); 109 % of control (dose: 100.0 mg/kg/injection, schedule: Q01DX009 (ip), vehicle: saline with Tween-80); 98 % of control under setting [7]; 102 % of control (dose: 200.0 mg/kg/injection, schedule: Q01DX001 (ip), vehicle: saline with Tween-80); 95 % of control (dose: 200.0 mg/kg/injection, schedule: Q01DX009 (ip), vehicle: saline with Tween-80); 98 % of control under setting [8]. Besides, the T/C by setting is: (dose: 400.0 mg/kg/injection, schedule: Q01DX001 (ip), vehicle: saline with Tween-80) 98 % of control; (dose: 400.0 mg/kg/injection, schedule: Q01DX009 (ip), vehicle: saline with Tween-80) 93 % of control; under setting [9], 96 % of control.
With `O=C(/C=C/c1ccco1)c1ccc(O)cc1`, the T/C is, setting by setting: (dose: 100.0 mg/kg/injection, schedule: Q04DX002 (ip), vehicle: Klucel (hydroxypropylcellulose) (HPC)) 101 % of control; (dose: 200.0 mg/kg/injection, schedule: Q04DX002 (ip), vehicle: Klucel (hydroxypropylcellulose) (HPC)) 90 % of control; (dose: 400.0 mg/kg/injection, schedule: Q04DX002 (ip), vehicle: Klucel (hydroxypropylcellulose) (HPC)) 93 % of control.
For the compound `CC1(O)C=Cc2ccccc21` (stereo not drawn), the T/C is 100 % of control under setting [7] and 95 % of control under setting [8].
In the case of `Nc1ccc(CCc2ccccc2)c(C(=O)O)c1`, the T/C reads like this: under setting [3], 104 % of control; under setting [1], 110 % of control; under setting [2], 96 % of control.
